# Measurements published in patent US6461997B1, “Triazole sulfones having herbicidal activity” (Monsanto Technology LLC, priority 1999, dated 2002).
# Key:
# [1] = tested on: CIRAR (canada thistle (seedling)); assay: Pre-emergence herbicidal activity, warm season; assay type: in vivo, Cirsium arvense; settings: GR80 = lowest tested rate (300, 100, 30, 10 g/ha) with 80% or greater inhibition; approx. 14 days after treating; 30/21° C.
# In short: (§1)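 Seeds sown in sterilised fertilised topsoil received surface-applied compound in 50:50 acetone/water, typically at 300, 100, 30 and 10 g/ha, then greenhouse-grown at 30/21° C (warm-season species) or 18/13° C (cool-season species). Percent inhibition versus untreated plants was scored at about 14 days, giving GR80; an asterisk marks activity short of 80% at the top rate.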
# [2] = tested on: IPOSS (annual morningglory); assay: Pre-plant incorporated (PPI) herbicidal activity, warm season; assay type: in vivo, Ipomoea spp.; settings: PPI application
# Procedure: (§2) In another set of tests, the pre-plant incorporated (PPI) activity of compounds of this invention was evaluated on the same species as for the pre-emergence tests described above. In the PPI tests the following procedure, designed to simulate PPI application, was used.
# (§3) A pre-prepared topsoil mixture (described above) was placed in a pot and compacted to a depth of 1.0 to 1.25 cm from the top of the pot. Seeds of each of several monocotyledonous and dicotyledonous annual plant species were placed on top of the soil. A sufficient quantity of soil to cover the seeds and level fill the pot was weighed into an open container. A known amount of the test compound was dissolved or suspended in an organic solvent and applied by spraying to this cover soil. The cover soil was thoroughly mixed to distribute the test compound throughout the cover soil, and was then applied as a cover layer over the seeds. Untreated soil was used as a cover layer for control pots. After treatment the plants were placed in a greenhouse where they received 0.64 cm of overhead irrigation. All subsequent watering consisted of a light overhead mist and/or subirrigation as needed for germination and growth. Tables 9 and 10 below relate to warm season plant species which were placed after pre-emergence treatment in a greenhouse with a 30/21° C. day/night temperature regime. Tables 11 and 12 below relates to cool season plant species placed after pre-emergence treatment in a greenhouse or growth chamber with an 18/13° C. day/night temperature regime. Only the compounds of Examples 1, 6, 8, 11, 13 and 15-20 were included in PPI tests.
# (§4) Approximately 14 days after planting and treating, the plants were observed and herbicidal efficacy recorded as percent inhibition by comparison with untreated plants.
# [3] = tested on: SETVI (green foxtail); assay: Post-emergence herbicidal activity, cool season; assay type: in vivo, Setaria viridis; settings: abraded plants sprayed at 300, 100, 30 and 10 g/ha; about 14 days after treatment
# Procedure: In another set of tests, the post-emergence activity of compounds of this invention was evaluated on the cool season species listed above. The following procedure was used.
# A pre-prepared topsoil mixture (described above) was placed in a pot and compacted to a depth of 1.0 to 1.25 cm from the top of the pot. Seeds of each of several monocotyledonous and dicotyledonous annual plant species were placed on top of the soil. The seeds were covered with a mixture of 50% topsoil and 50% Rediearth™ in sufficient quantity to level-fill the pots. The pots were then placed on a greenhouse bench and subirrigated as needed.
# When plants growing from the seeds had emerged and reached a suitable growth stage for post-emergence treatment, typically 9 to 14 days after planting, above-ground parts of the plants were subjected to a pre-treatment involving abrasion to create greater opportunity for foliar uptake of subsequently applied compounds. Abrasion was performed using garnet 200w particles applied with a Sears Craftsman hand-held sandblaster operated at approximately 850 kPa (50 psig) pressure.
# A known amount of each test compound dissolved or suspended in an appropriate organic solvent was diluted with a 50:50 mix of acetone and water and applied to the plants by spraying with a standard spray nozzle in a spray volume of […] at a spray pressure of 511 kPa (30 psig). Only the compounds of Examples 1, 8-15 and 17-22 were included in post-emergence tests. Application rates for these compounds were 300, 100, 30 and 10 g/ha. Control plants were abraded but not sprayed.
# After treatment the plants were placed in a greenhouse with an 18/13° C. day/night temperature regime and were subsequently watered as needed for growth. Approximately 14 days after treatment, the plants were observed and herbicidal efficacy recorded as percent inhibition by comparison with control plants. GR80 values were assigned for each compound as described above for the pre-emergence tests.
# [4] = tested on: CONAR (field bindweed); assay: Pre-plant incorporated (PPI) herbicidal activity, warm season; assay type: in vivo, Convolvulus arvensis; settings: GR80 = lowest tested rate with 80% or greater inhibition, approx. 14 days after treating, 30/21° C.
# Procedure: as §2, §3, §4
# [5] = tested on: POROL (common purslane); assay: as above; assay type: in vivo, Portulaca oleracea; settings: GR80 = lowest tested rate with 80% or greater inhibition, approx. 14 days after treating, 30/21° C.
# Procedure: as §2, §3, §4
# [6] = tested on: CIRAR (canada thistle (seedling)); assay: as above; assay type: in vivo, Cirsium arvense; settings: GR80 = lowest tested rate with 80% or greater inhibition, approx. 14 days after treating, 30/21° C.
# Procedure: as §2, §3, §4
# [7] = tested on: BROTE (downy brome); assay: Pre-emergence herbicidal activity, cool season; assay type: in vivo, Bromus tectorum; settings: GR80 = lowest tested rate (300, 100, 30, 10 g/ha) with 80% or greater inhibition; approx. 14 days after treating; 18/13° C.
# In short: as §1
# [8] = tested on: AVEFA (wild oat); assay: Pre-emergence herbicidal activity, cool season; assay type: in vivo, Avena fatua; settings: GR80 = lowest tested rate (300, 100, 30, 10 g/ha) with 80% or greater inhibition; approx. 14 days after treating; 18/13° C.
# In short: as §1
# [9] = tested on: DATST (jimsonweed); assay: Pre-emergence herbicidal activity, warm season; assay type: in vivo, Datura stramonium; settings: for Pre-emergence activity (GR80) DATST: GR80 = lowest tested rate (300, 100, 30, 10 g/ha) with 80% or greater inhibition, approx. 14 days after treating, 30/21° C.
# In short: as §1
compound,measurement,setting,value
CCN(CC)C(=O)n1cnc(S(=O)(=O)C(F)(F)SCc2ccccc2)n1 [Example 10],Pre-emergence activity (GR80) CIRAR,[1],300 g/ha
same,Percent inhibition IPOSS,[2]; 10 g/ha,0%
same,Percent inhibition IPOSS,[2]; 30 g/ha,0%
same,Percent inhibition IPOSS,[2]; 100 g/ha,0%
same,Percent inhibition IPOSS,[2]; 300 g/ha,0%
same,Percent inhibition IPOSS,[2]; 900 g/ha,50%
same,"Post-emergence activity GR80, SETVI",[3],[empty]
CCN(CC)C(=O)n1cnc(S(=O)(=O)C(F)(F)SCC(=O)OC)n1 [Example 11],Pre-emergence activity (GR80) CIRAR,[1],300 g/ha
same,PPI activity (GR80) CONAR,[4],100 g/ha
same,PPI activity (GR80) POROL,[5],300 g/ha
same,PPI activity (GR80) CIRAR,[6],100 g/ha
same,Percent inhibition IPOSS,[2]; 10 g/ha,0%
same,Percent inhibition IPOSS,[2]; 30 g/ha,0%
same,Percent inhibition IPOSS,[2]; 100 g/ha,0%
same,Percent inhibition IPOSS,[2]; 300 g/ha,0%
same,Percent inhibition IPOSS,[2]; 900 g/ha,0%
same,"Post-emergence activity GR80, SETVI",[3],[empty]
CCN(CC)C(=O)n1cnc(S(=O)(=O)C(F)(F)SCCOC)n1 [Example 13],Pre-emergence activity (GR80) BROTE,[7],300 g/ha
same,Pre-emergence activity (GR80) AVEFA,[8],300 g/ha
same,PPI activity (GR80) CONAR,[4],"* (activity observed, at least at highest rate, but <80% inhibition)"
same,PPI activity (GR80) POROL,[5],100 g/ha
same,PPI activity (GR80) CIRAR,[6],100 g/ha
same,Percent inhibition IPOSS,[2]; 10 g/ha,0%
same,Percent inhibition IPOSS,[2]; 30 g/ha,0%
same,Percent inhibition IPOSS,[2]; 100 g/ha,0%
same,Percent inhibition IPOSS,[2]; 300 g/ha,10%
same,Percent inhibition IPOSS,[2]; 900 g/ha,100%
same,"Post-emergence activity GR80, SETVI",[3],[empty]
CCN(CC)C(=O)n1cnc(S(=O)(=O)C(F)(F)C(F)(F)SC)n1 [Example 14],Pre-emergence activity (GR80) CIRAR,[1],300 g/ha
same,Pre-emergence activity (GR80) AVEFA,[8],300 g/ha
same,"Post-emergence activity GR80, SETVI",[3],[empty]
"CCN(CC)C(=O)n1cnc(S(=O)(=O)C(F)F)n1 [Example 15, 1-(N,N-diethylcarbamoyl)-3-(difluoromethylsulfonyl)-1,2,4-triazole]",inhibition at 10 g/ha,"[9]; Datura stramonium, pre-emergence application, 10 g/ha, read-out: Percent inhibition, weed DATST",0%
same,inhibition at 30 g/ha,"[9]; Datura stramonium, pre-emergence application, 30 g/ha, read-out: Percent inhibition, weed DATST",0%
same,inhibition at 100 g/ha,"[9]; Datura stramonium, pre-emergence application, 100 g/ha, read-out: Percent inhibition, weed DATST",0%
same,inhibition at 300 g/ha,"[9]; Datura stramonium, pre-emergence application, 300 g/ha, read-out: Percent inhibition, weed DATST",0%
same,Pre-emergence activity (GR80) DATST,[9],300 g/ha
same,Pre-emergence activity (GR80) CIRAR,[1],30 g/ha
same,PPI activity (GR80) CONAR,[4],"* (activity observed, at least at highest rate, but <80% inhibition)"
same,PPI activity (GR80) POROL,[5],100 g/ha
same,PPI activity (GR80) CIRAR,[6],100 g/ha
same,inhibition at 30 g/ha,"[2]; Ipomoea, 30 g/ha, read-out: Percent inhibition IPOSS",0%
same,inhibition at 300 g/ha,"[2]; Ipomoea, 300 g/ha, read-out: Percent inhibition IPOSS",20%
same,inhibition at 900 g/ha,"[2]; Ipomoea, 900 g/ha, read-out: Percent inhibition IPOSS",20%
same,"Post-emergence activity GR80, SETVI",[3],[empty]
CCN(CC)C(=O)n1cnc(S(=O)(=O)C(F)(F)C(F)F)n1 [Example 16],Pre-emergence activity (GR80) DATST,[9],300 g/ha
same,Pre-emergence activity (GR80) AVEFA,[8],300 g/ha
same,PPI activity (GR80) CONAR,[4],100 g/ha
same,PPI activity (GR80) POROL,[5],10 g/ha
same,PPI activity (GR80) CIRAR,[6],30 g/ha
same,Percent inhibition IPOSS,[2]; 10 g/ha,0%
same,Percent inhibition IPOSS,[2]; 30 g/ha,0%
same,Percent inhibition IPOSS,[2]; 100 g/ha,0%
same,Percent inhibition IPOSS,[2]; 300 g/ha,0%
same,Percent inhibition IPOSS,[2]; 900 g/ha,50%
"C=CCC(F)(F)S(=O)(=O)c1ncn(C(=O)N(CC)CC)n1 [Example 17, 1-(N,N-diethylcarbamoyl)-3-[(1,1-difluoro-3-butenyl)sulfonyl]-1,2,4-triazole]",Pre-emergence activity (GR80) BROTE,[7],100 g/ha
same,Pre-emergence activity (GR80) AVEFA,[8],100 g/ha
same,PPI activity (GR80) CONAR,[4],"* (activity observed, at least at highest rate, but <80% inhibition)"
same,PPI activity (GR80) POROL,[5],30 g/ha
same,PPI activity (GR80) CIRAR,[6],300 g/ha
same,"Post-emergence activity GR80, SETVI",[3],[empty]
C=C(C)CC(F)(F)S(=O)(=O)c1ncn(C(=O)N(CC)CC)n1 [Example 18],Pre-emergence activity (GR80) DATST,[9],300 g/ha
same,Pre-emergence activity (GR80) CIRAR,[1],300 g/ha
same,Pre-emergence activity (GR80) BROTE,[7],300 g/ha
same,Pre-emergence activity (GR80) AVEFA,[8],"* (activity observed, at least at highest rate, but <80% inhibition)"
same,PPI activity (GR80) CONAR,[4],100 g/ha
same,PPI activity (GR80) POROL,[5],100 g/ha
same,PPI activity (GR80) CIRAR,[6],30 g/ha
same,"Post-emergence activity GR80, SETVI",[3],[empty]
C=C(Br)CC(F)(F)S(=O)(=O)c1ncn(C(=O)N(CC)CC)n1 [Example 19],Pre-emergence activity (GR80) DATST,[9],"* (activity observed, at least at highest rate, but <80% inhibition)"
same,Pre-emergence activity (GR80) CIRAR,[1],300 g/ha
same,Pre-emergence activity (GR80) BROTE,[7],"* (activity observed, at least at highest rate, but <80% inhibition)"
same,Pre-emergence activity (GR80) AVEFA,[8],"* (activity observed, at least at highest rate, but <80% inhibition)"
same,PPI activity (GR80) CONAR,[4],300 g/ha
same,PPI activity (GR80) POROL,[5],100 g/ha
same,PPI activity (GR80) CIRAR,[6],300 g/ha
same,"Post-emergence activity GR80, SETVI",[3],[empty]
